Numbered stars: 1 amine (or outer) side, 2 acyl side, 3 side chain; on linkers, the order of the positions; unused ones are H or OH. Square brackets hold non-standard residues; d marks the D form. Peptide text beside a SMILES is read from it. * marks the point of attachment. X1 = CC(C)CC(C[C@H](O)[C@H](CC1CCCCC1)N[*:1])C(=O)[*:2]; Nle = CCCC[C@H](N)C(=O)O; Orn = NCCC[C@H](N)C(=O)O; Boc = CC(C)(C)OC(=O)*
Legend:
[1] = Binding affinity against Retinol-binding protein
[2] = molecular target: T1, Thermolysin (Bacillus thermoproteolyticus) (UniProt P00800); assay: Binding affinity against Thermolysin
T1 sequence (whole entry): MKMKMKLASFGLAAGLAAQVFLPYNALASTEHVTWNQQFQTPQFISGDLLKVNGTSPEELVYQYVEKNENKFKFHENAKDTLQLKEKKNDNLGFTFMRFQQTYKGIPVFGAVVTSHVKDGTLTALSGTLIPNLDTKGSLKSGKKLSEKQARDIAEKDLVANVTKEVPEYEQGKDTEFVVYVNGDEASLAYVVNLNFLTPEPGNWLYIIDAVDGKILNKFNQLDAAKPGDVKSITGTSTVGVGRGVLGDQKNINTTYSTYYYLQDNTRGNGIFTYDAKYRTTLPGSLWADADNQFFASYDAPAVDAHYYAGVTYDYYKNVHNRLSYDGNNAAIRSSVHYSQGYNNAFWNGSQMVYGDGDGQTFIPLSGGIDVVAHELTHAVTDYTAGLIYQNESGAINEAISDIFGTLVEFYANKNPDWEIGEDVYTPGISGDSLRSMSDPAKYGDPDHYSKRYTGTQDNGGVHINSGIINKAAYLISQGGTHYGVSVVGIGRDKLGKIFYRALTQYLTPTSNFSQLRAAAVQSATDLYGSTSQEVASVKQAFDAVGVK

Trypsin II (Bos taurus) = molecular target: T2, Trypsin II (Bos taurus) (UniProt Q29463); assay: log Kd (Binding affinity against specified protein) value of the compound
T2 sequence (whole entry): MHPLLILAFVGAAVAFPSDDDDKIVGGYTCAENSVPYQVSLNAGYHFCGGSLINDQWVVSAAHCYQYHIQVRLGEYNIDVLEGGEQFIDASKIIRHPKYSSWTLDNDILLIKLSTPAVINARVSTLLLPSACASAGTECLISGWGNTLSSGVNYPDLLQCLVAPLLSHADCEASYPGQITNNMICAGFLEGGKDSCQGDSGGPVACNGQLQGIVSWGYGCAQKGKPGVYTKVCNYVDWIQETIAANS

[3] = molecular target: Serine protease 1 (Homo sapiens) (UniProt P07477); assay: Binding affinity against trypsin
Chain of Serine protease 1 (Homo sapiens) (P07477 whole entry): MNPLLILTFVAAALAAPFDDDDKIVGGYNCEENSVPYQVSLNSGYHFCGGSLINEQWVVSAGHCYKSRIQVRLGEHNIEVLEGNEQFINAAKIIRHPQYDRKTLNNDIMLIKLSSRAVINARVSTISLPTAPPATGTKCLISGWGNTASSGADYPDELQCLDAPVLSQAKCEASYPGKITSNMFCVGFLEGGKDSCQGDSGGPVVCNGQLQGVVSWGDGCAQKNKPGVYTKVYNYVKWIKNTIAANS

[4] = Binding affinity against Glucose binding protein
[5] = Binding affinity against Histidine-binding protein
[6] = molecular target: Human immunodeficiency virus type 1 protease (Human immunodeficiency virus 1) (UniProt Q72874); assay: Affinity for HIV Protease
[7] = Binding affinity against Endothiapepsin
[8] = system: Purine nucleoside phosphorylase; assay: Binding affinity against Purine Nucleoside Phosphorylase
[9] = molecular target: T3, Mast cell carboxypeptidase A (Homo sapiens) (UniProt P15088); assay: Binding affinity against Carboxypeptidase A
T3 sequence (whole entry): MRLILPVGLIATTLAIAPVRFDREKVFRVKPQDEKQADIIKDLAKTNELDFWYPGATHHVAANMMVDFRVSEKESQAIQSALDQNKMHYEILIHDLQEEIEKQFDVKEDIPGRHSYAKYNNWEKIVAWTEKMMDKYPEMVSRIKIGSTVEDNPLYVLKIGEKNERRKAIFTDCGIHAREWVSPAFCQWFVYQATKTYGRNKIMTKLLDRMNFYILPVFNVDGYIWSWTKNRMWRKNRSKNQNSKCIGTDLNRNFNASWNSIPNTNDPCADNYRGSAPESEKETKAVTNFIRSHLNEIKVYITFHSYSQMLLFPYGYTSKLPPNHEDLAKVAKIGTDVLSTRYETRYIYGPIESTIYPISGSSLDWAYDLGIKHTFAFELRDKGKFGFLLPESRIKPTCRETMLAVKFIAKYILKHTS

[10] = Binding affinity against Xylose isomerase
[11] = Binding affinity against Penicillopepsin
[12] = molecular target: T4, Fatty acid-binding protein, intestinal (Homo sapiens) (UniProt P12104); assay: Binding affinity against Fatty acid-binding protein
T4 sequence (whole entry): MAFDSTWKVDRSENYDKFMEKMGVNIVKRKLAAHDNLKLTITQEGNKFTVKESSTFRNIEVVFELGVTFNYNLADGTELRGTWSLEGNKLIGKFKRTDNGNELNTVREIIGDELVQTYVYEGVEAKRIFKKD

`CC1=C(/C=C/C(C)=C/C=C/C(C)=C/CO)C(C)(C)CCC1` gave a Log Kd [1] of -6.72.
`CC(C)C[C@H](NP(=O)(O)O[C@@H]1O[C@@H](C)[C@H](O)[C@@H](O)[C@H]1O)C(=O)N[C@@H](Cc1c[nH]c2ccccc12)C(=O)O` gave a Log Kd [2] of -7.56.
In the case of `N=C(N)c1ccccc1`, the Log Kd (Trypsin II (Bos taurus)) is reported as -1.83 and the Log Kd [3] is reported as -4.74.
Work on `OC[C@H]1OC(O)[C@H](O)[C@@H](O)[C@@H]1O` (stereo not given in full) yielded a Log Kd [4] of -7.6.
In the case of `N[C@@H](Cc1c[nH]cn1)C(=O)O`, the Log Kd [5] is reported as -7.31.
Work on `CC(C)CN(C[C@@H](O)[C@H](Cc1ccccc1)NC(=O)O[C@H]1CCOC1)S(=O)(=O)c1ccc(N)cc1` yielded a Log Kd [6] of -9.23.
`COC(=O)[C@@H](NC(=O)[C@@H](NC(=O)[C@H](C)N1CCC([C@H](C)NC(=O)[C@H](C)N)=C[C@@H](Cc2ccccc2)C1)C(C)C)C(C)C` showed a Log Kd [6] of -6.37.
`CC(C)N(C[C@H](O)[C@H](CC1CCCCC1)NC(=O)[C@H](Cc1c[nH]cn1)NC(=O)[C@H](Cc1ccccc1)NC(=O)OC(C)(C)C)C(=O)N[C@@H](CCCCN)C(=O)N[C@@H](Cc1ccccc1)C(=O)O` gave a Log Kd [7] of -6.58.
Work on `CC(C)[C@H](NC(=O)N(C)Cc1ccccn1)C(=O)N[C@@H](Cc1ccccc1)[C@H](O)[C@H](O)[C@H](Cc1ccccc1)NC(=O)[C@@H](NC(=O)N(C)Cc1ccccn1)C(C)C` yielded a Log Kd [6] of -10.1.
In the case of `O=P(O)(O)OP(=O)(O)OC[C@H]1O[C@@H](n2cnc3cncnc32)[C@H](O)[C@@H]1O`, the Log Kd [8] is reported as -6.22.
With `NCCCC[C@H](NC(=O)CN)C(=O)O` (H-Gly-Lys-OH) the Log Kd [9] was -3.89.
With `O=C(N[C@H]1c2ccccc2C[C@H]1O)[C@H](Cc1ccccc1)CC(O)C[C@@H](Cc1ccccc1)C(=O)N[C@H]1c2ccccc2C[C@H]1O` the Log Kd [6] was -9.15.
In the case of `OC[C@@H](O)[C@H](O)[C@@H](O)CO`, the Log Kd [10] is reported as -5.83.
`CCC(C)CNC(=O)C(CC(C)C)CC(O)C(CC1CCCCC1)NC(=O)C(Cc1c[nH]cn1)NC(=O)C(Cc1cccc2ccccc12)Cc1cccc2ccccc12` (stereo not given) showed a Log Kd [7] of -6.63.
Work on `NCCCCc1ccccc1` yielded a Log Kd [3] of -1.7.
`CCCC[C@H](NC(=O)[C@H](CCCC)NC(=O)[C@@H](NC(=O)[C@@H](NC(C)=O)[C@@H](C)O)[C@@H](C)CC)C(=O)N[C@@H](CCCN)C(=O)N[C@@H](CCCN=C(N)N)C(N)=O` (Ac-TI[Nle][Nle][Orn]R-NH2) showed a Log Kd [6] of -6.11.
`O=P(O)(O)OP(=O)(O)OP(=O)(O)OP(=O)(O)OP(=O)(O)OC[C@H]1O[C@@H](n2cnc3cncnc32)[C@H](O)[C@@H]1O` showed a Log Kd [8] of -5.96.
`CCOC(=O)CC(OP(=O)(O)O)C(CC(C)C)NC(=O)[C@@H](NC(=O)[C@@H](NC(=O)CC(C)C)C(C)C)C(C)C` (stereo not given in full) gave a Log Kd [11] of -7.66.
For `CCOC(=O)CC(O)C(CC(C)C)NC(=O)[C@@H](NC(=O)[C@@H](NC(=O)CC(C)C)C(C)C)C(C)C` (stereo not given in full), the Log Kd [11] was -7.71.
With `CC1(C)SC(C(NC(=O)Cc2ccccc2)C(=O)NCc2ccccc2)NC1C(=O)NC(CO)Cc1ccccc1` (stereo not given) the Log Kd [6] was -8.1.
In the case of `CC(C)[C@H](NC(=O)N(C)Cc1ccccn1)C(=O)N[C@@H](Cc1ccccc1)[C@@H](O)[C@H](O)[C@H](Cc1ccccc1)NC(=O)[C@@H](NC(=O)N(C)Cc1ccccn1)C(C)C`, the Log Kd [6] is reported as -9.01.
With `CC(C)[C@H](NC(=O)N(C)Cc1ccccn1)C(=O)N[C@@H](Cc1ccccc1)C(O)C(O)[C@H](Cc1ccccc1)NC(=O)[C@@H](NC(=O)N(C)Cc1ccccn1)C(C)C` (single isomer, unassigned) the Log Kd [6] was -10.1.
With `CCCCCCCCCCCCCCCC(=O)O` the Log Kd [12] was -5.43.
Molecule `CC(C)CC(C[C@H](O)[C@H](CC1CCCCC1)NC(=O)[C@H](Cc1c[nH]cn1)NC(=O)[C@H](Cc1ccccc1)NC(=O)OC(C)(C)C)C(=O)N[C@@H](CCCCN)C(=O)N[C@@H](Cc1ccccc1)C(=O)O` (stereo not given in full) (Boc-FH[X1]KF-OH) has a Log Kd [7] of -7.11.

— ChEMBL document CHEMBL1135481, “SMall Molecule Growth 2001 (SMoG2001): an improved knowledge-based scoring function for protein-ligand interactions” (J Med Chem, 2002)
